Structures can show the parent of a compound that is named as a salt.
Tests used:
p38 alpha = biological target: T1, p38 alpha (Homo sapiens, UniProt Q16539); assay: P38 alpha enzyme inhibition assay (Alphascreen kinase activity assay); type: biochemical; conditions: 100 pM p38 alpha, 2 hours preincubation at 25° C., 250 μM ATP, ATF-2 fusion protein; read-out: p38α inhibition
T1 construct: purchased Invitrogen PV3304
Summary of the method: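 Phosphorylation of ATF-2 fusion protein (0.3 μg/ml) read by AlphaScreen with anti-phospho-ATF2 antibody after 1 h kinase reaction at 25 °C, initiated by 250 μM ATP. Compounds first incubated 2 h at 25 °C with 100 pM p38 alpha in pH 7.5 HEPES buffer, 1% DMSO. IC50 derived from concentration-response data.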

[1] = tested on: Peripheral Blood Mononuclear Cells (PBMCs), TNFα release; assay: LPS-stimulated PBMC TNFα release assay; type: cell-based; conditions: human PBMC, LPS (10 ng/ml), 18 h, compound 1 h before LPS; read-out: LPS-stimulated PBMC TNFα release inhibition
Summary of the method: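 TNFα in cell-free supernatant, read on MSD plates, gave % inhibition curves and IC50 (≥3 separate experiments). Healthy-donor PBMCs had 1 h compound exposure at 37 °C in 1% FBS medium, then 18 h stimulation with 10 ng/ml LPS, after a 3 h serum-free rest.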

T1 sequence (Q16539 whole entry, the tested form may be a part): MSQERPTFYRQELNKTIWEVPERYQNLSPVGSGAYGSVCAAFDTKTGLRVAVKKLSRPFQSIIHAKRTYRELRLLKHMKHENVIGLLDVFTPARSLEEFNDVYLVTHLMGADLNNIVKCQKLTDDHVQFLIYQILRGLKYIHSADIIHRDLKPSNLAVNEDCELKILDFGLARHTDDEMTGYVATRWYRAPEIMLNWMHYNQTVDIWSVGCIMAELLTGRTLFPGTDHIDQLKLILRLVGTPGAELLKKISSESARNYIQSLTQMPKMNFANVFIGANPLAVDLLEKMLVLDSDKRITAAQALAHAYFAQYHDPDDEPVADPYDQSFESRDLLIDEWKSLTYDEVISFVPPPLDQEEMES

SMILES	IC50 (p38 alpha) [nM]	IC50 [1] [nM]
CC(C)(C)c1cc(NC(=O)N[C@H]2CC[C@@H](Oc3ccc4nnc(C5(C)CCC5)n4c3)c3ccccc32)nc(C(=O)NCCN2CCOCC2)n1 [Example 109, 4-(tert-butyl)-6-(3-((1S,4R)-4-((3-(1-methylcyclobutyl)-[1,2,4]triazolo[4,3-a]pyridin-6-yl)oxy)-1,2,3,4-tetrahydronaphthalen-1-yl)ureido)-N-(2-morpholinoethyl)-pyrimidine-2-carboxamide]	< 1	> 5
CC(C)(C)c1cc(NC(=O)N[C@H]2CC[C@@H](Oc3ccc4nnc(C(C)(C)C)n4c3)c3ccccc32)nc(C(=O)NCCO)n1 [Example 16, 4-(tert-Butyl)-6-(3-((1S,4R)-4-((3-(tert-butyl)-[1,2,4]triazolo[4,3-a]pyridin-6-yl)oxy)-1,2,3,4-tetrahydronaphthalen-1-yl)ureido)-N-(2-hydroxyethyl)pyrimidine-2-carboxamide]	< 1	< 1
CC(C)(C)c1cc(NC(=O)N[C@H]2CC[C@@H](Oc3ccc4nnc(C(C)(C)C)n4c3)c3ccccc32)nc(C(=O)NCCN2CCC(O)CC2)c1 [Example 211, 4-(tert-butyl)-6-(3-((1S,4R)-4-((3-(tert-butyl)-[1,2,4]triazolo[4,3-a]pyridin-6-yl)oxy)-1,2,3,4-tetrahydronaphthalen-1-yl)ureido)-N-(-(2-(4-hydroxypiperidin-1-yl)ethyl)picolinamide formate salt]	< 1	> 5
CN(C)CC(=O)NCc1nc(NC(=O)N[C@H]2CC[C@@H](Oc3ccc4nnc(C(C)(C)C)n4c3)c3ccccc32)cc(C(C)(C)C)n1 [Example 24, N-((4-(tert-Butyl)-6-(3-((1S,4R)-4-((3-(tert-butyl)-[1,2,4]triazolo[4,3-a]pyridin-6-yl)oxy)-1,2,3,4-tetrahydronaphthalen-1-yl)ureido)pyrimidin-2-yl)methyl)-2-(dimethylamino)acetamide]	< 1	> 5
CCC(C)(C)c1nnc2ccc(O[C@@H]3CC[C@H](NC(=O)Nc4cc(C(C)(C)C)nc(C(=O)NCCN(C)C)n4)c4ccccc43)cn12 [Example 3, 4-(tert-Butyl)-N-(2-(dimethylamino)ethyl)-6-(3-((1S,4R)-4-((3-(tert-pentyl)-[1,2,4]triazolo[4,3-a]pyridin-6-yl)oxy)-1,2,3,4-tetrahydronaphthalen-1-yl)ureido)pyrimidine-2-carboxamide]	< 1	1 to 5
CCN(C)CCNC(=O)c1nc(NC(=O)N[C@H]2CC[C@@H](Oc3ccc4nnc(C(C)(C)C)n4c3)c3ccccc32)cc(C(C)(C)C)n1 [Example 114, 4-(tert-butyl)-6-(3-((1S,4R)-4-((3-(tert-butyl)-[1,2,4]triazolo[4,3-a]pyridin-6-yl)oxy)-1,2,3,4-tetrahydronaphthalen-1-yl)ureido)-N-(2-(ethyl(methyl)amino)-ethyl)pyrimidine-2-carboxamide]	< 1	< 1
Cc1nc(NC(=O)N[C@H]2CC[C@@H](Oc3ccc4nnc([C@]5(C)CCCN5C)n4c3)c3ccccc32)cc(C(C)(C)C)n1 [Example 40, 1-(6-(tert-Butyl)-2-methylpyrimidin-4-yl)-3-((1S,4R)-4-((3-((S)-1,2-dimethylpyrrolidin-2-yl)-[1,2,4]triazolo[4,3-a]pyridin-6-yl)oxy)-1,2,3,4-tetrahydronaphthalen-1-yl)urea]	< 1	1 to 5
COCC(C)(C)c1nnc2ccc(O[C@@H]3CC[C@H](NC(=O)Nc4cc(C(C)(C)C)nc(C(=O)NCCN5CCCOCC5)n4)c4ccccc43)cn12 [Example 122, N-(2-(1,4-oxazepan-4-yl)ethyl)-4-(tert-butyl)-6-(3-((1S,4R)-4-((3-(1-methoxy-2-methylpropan-2-yl)-[1,2,4]triazolo[4,3-a]pyridin-6-yl)oxy)-1,2,3,4-tetrahydronaphthalen-1-yl)ureido)pyrimidine-2-carboxamide]	< 1	1 to 5
COCC(C)(C)c1nnc2ccc(O[C@@H]3CC[C@H](NC(=O)Nc4cc(C(=O)NCCN(C)C)nc(C(C)(C)C)c4)c4ccccc43)cn12 [Example 190, 6-(tert-butyl)-N-(2-(dimethylamino)ethyl)-4-(3-((1S,4R)-4-((3-(1-methoxy-2-methylpropan-2-yl)-[1,2,4]triazolo[4,3-a]pyridin-6-yl)oxy)-1,2,3,4-tetrahydronaphthalen-1-yl)ureido)picolinamide]	< 1	1 to 5
CN(CCO)C(=O)c1nc(NC(=O)N[C@H]2CC[C@@H](Oc3ccc4nnc(C(C)(C)C)n4c3)c3ccccc32)cc(C(C)(C)C)n1 [Example 82, 4-(tert-butyl)-6-(3-((1S,4R)-4-((3-(tert-butyl)-[1,2,4]triazolo[4,3-a]pyridin-6-yl)oxy)-1,2,3,4-tetrahydronaphthalen-1-yl)ureido)-N-(2-hydroxyethyl)-N-methylpyrimidine-2-carboxamide]	1 to 10	> 5
CC[C@H](C)c1nnc2ccc(O[C@@H]3CC[C@H](NC(=O)Nc4cc(C(C)(C)C)nc(C(=O)NCCN(C)C)n4)c4ccccc43)cn12 [Example 100, 4-(tert-butyl)-6-(3-((1S,4R)-4-((3-((S)-sec-butyl)-[1,2,4]triazolo[4,3-a]pyridin-6-yl)oxy)-1,2,3,4-tetrahydronaphthalen-1-yl)ureido)-N-(2-(dimethylamino)ethyl)-pyrimidine-2-carboxamide]	< 1	1 to 5
CN1CCC[C@@]1(C)c1nnc2ccc(O[C@@H]3CC[C@H](NC(=O)Nc4cc(C(C)(C)C)nc(CO)n4)c4ccccc43)cn12 [Example 27, 1-(6-(tert-Butyl)-2-(hydroxymethyl)pyrimidin-4-yl)-3-((1S,4R)-4-((3-((S)-1,2-dimethylpyrrolidin-2-yl)-[1,2,4]triazolo[4,3-a]pyridin-6-yl)oxy)-1,2,3,4-tetrahydronaphthalen-1-yl)urea]	< 1	< 1
CN1CCC[C@H]1c1nnc2ccc(O[C@@H]3CC[C@H](NC(=O)Nc4cc(C(C)(C)C)ncn4)c4ccccc43)cn12 [Example 46, 1-(6-(tert-Butyl)pyrimidin-4-yl)-3-((1S,4R)-4-((3-((S)-1-methylpyrrolidin-2-yl)-[1,2,4]triazolo[4,3-a]pyridine-6-yl)oxy)-1,2,3,4-tetrahydronaphthalene-1-yl)urea Hydrochloride]	< 1	1 to 5
CCC(C)(C)c1nnc2ccc(O[C@@H]3CC[C@H](NC(=O)Nc4cc(C(C)(C)C)nc(C(=O)NCCN(C)CCO)n4)c4ccccc43)cn12 [Example 2, 4-(tert-Butyl)-N-(2-((2-hydroxyethyl)(methyl)amino)ethyl)-6-(3-((1S,4R)-4-((3-(tert-pentyl)-[1,2,4]triazolo[4,3-a]pyridin-6-yl)oxy)-1,2,3,4-tetrahydronaphthalen-1-yl)ureido)pyrimidine-2-carboxamide]	< 1	1 to 5
CN1CCC(NC(=O)c2nc(NC(=O)N[C@H]3CC[C@@H](Oc4ccc5nnc(C(C)(C)C)n5c4)c4ccccc43)cc(C(C)(C)C)n2)CC1 [Example 134, 4-(tert-butyl)-6-(3-((1S,4R)-4-((3-(tert-butyl)-[1,2,4]triazolo[4,3-a]pyridin-6-yl)oxy)-1,2,3,4-tetrahydronaphthalen-1-yl)ureido)-N-(1-methylpiperidin-4-yl)pyrimidine-2-carboxamide]	1 to 10	> 5
CC(C)(C)c1cc(NC(=O)N[C@H]2CC[C@@H](Oc3ccc4nnc(C5(C)CCCC5)n4c3)c3ccccc32)nc(C(=O)NCCCN2CCOCC2)n1 [Example 184, 4-(tert-Butyl)-6-(3-((1S,4R)-4-((3-(1-methylcyclopentyl)-[1,2,4]triazolo[4,3-a]pyridin-6-yl)oxy)-1,2,3,4-tetrahydronaphthalen-1-yl)ureido)-N-(3-morpholinopropyl)-pyrimidine-2-carboxamide formate salt]	< 1	< 1
Cc1ncc(C(C)(C)C)cc1NC(=O)N[C@H]1CC[C@@H](Oc2ccc3nnc([C@]4(C)CCCN4C)n3c2)c2ccccc21 [Example 50, 1-(5-(tert-Butyl)-2-methylpyridin-3-yl)-3-((1S,4R)-4-((3-((S)-1,2-dimethylpyrrolidin-2-yl)-[1,2,4]triazolo[4,3-a]pyridin-6-yl)oxy)-1,2,3,4-tetrahydronaphthalen-1-yl)urea]	< 1	< 1
COCC(C)(C)c1nnc2ccc(O[C@@H]3CC[C@H](NC(=O)Nc4cc(C(C)(C)C)nc(C(=O)NCC5(N(C)C)CC5)n4)c4ccccc43)cn12 [Example 149, 4-(tert-butyl)-N-((1-(dimethylamino)cyclopropyl)methyl)-6-(3-((1S,4R)-4-((3-(l-methoxy-2-methylpropan-2-yl)-[1,2,4]triazolo[4,3-a]pyridin-6-yl)oxy)-1,2,3,4-tetrahydronaphthalen-1-yl)ureido)pyrimidine-2-carboxamide]	< 1	1 to 5
COCC(C)(C)c1nnc2ccc(O[C@@H]3CC[C@H](NC(=O)Nc4cc(C(C)(C)C)nc(C(=O)NCCN5CCOCC5)n4)c4ccccc43)cn12 [Example 97, 4-(tert-butyl)-6-(3-((1S,4R)-4-((3-(1-methoxy-2-methylpropan-2-yl)-[1,2,4]triazolo[4,3-a]pyridin-6-yl)oxy)-1,2,3,4-tetrahydronaphthalen-1-yl)ureido)-N-(2-morpholinoethyl)-pyrimidine-2-carboxamide]	< 1	> 5

From patent US10364245B2 (CHIESI FARMACEUTICI S.p.A., priority 2017, dated 2019)
